Experimental data from the NIST ThermoML archive (doi:10.1016/j.jct.2009.07.002).
± gives the expanded uncertainty stated by the source.

Experiment: isobaric coefficient of expansion
Conditions: Liquid, DSC with Pressure Shift

CCCCCN [1-pentanamine]
isobaric coefficient of expansion
Conditions | 278.15 K | 288.15 K | 298.15 K | 308.15 K | 318.15 K | 328.15 K | 338.15 K | 348.15 K
5000 kPa | 0.00109 ± 4.6e-05 1/K | 0.00111 ± 4.7e-05 1/K | 0.00112 ± 4.8e-05 1/K | 0.00114 ± 4.8e-05 1/K | 0.00116 ± 4.9e-05 1/K | 0.00118 ± 5e-05 1/K | 0.0012 ± 5.1e-05 1/K | 0.00123 ± 5.2e-05 1/K
10000 kPa | 0.00107 ± 4.5e-05 1/K | 0.00108 ± 4.6e-05 1/K | 0.00109 ± 4.6e-05 1/K | 0.00111 ± 4.7e-05 1/K | 0.00112 ± 4.8e-05 1/K | 0.00114 ± 4.8e-05 1/K | 0.00116 ± 4.9e-05 1/K | 0.00118 ± 5e-05 1/K
15000 kPa | 0.00105 ± 4.5e-05 1/K | 0.00106 ± 4.5e-05 1/K | 0.00107 ± 4.5e-05 1/K | 0.00108 ± 4.6e-05 1/K | 0.00109 ± 4.6e-05 1/K | 0.0011 ± 4.7e-05 1/K | 0.00112 ± 4.7e-05 1/K | 0.00113 ± 4.8e-05 1/K
20000 kPa | 0.00102 ± 4.3e-05 1/K | 0.00104 ± 4.4e-05 1/K | 0.00104 ± 4.4e-05 1/K | 0.00106 ± 4.5e-05 1/K | 0.00106 ± 4.5e-05 1/K | 0.00107 ± 4.5e-05 1/K | 0.00108 ± 4.6e-05 1/K | 0.0011 ± 4.6e-05 1/K
25000 kPa | 0.00101 ± 4.3e-05 1/K | 0.00102 ± 4.3e-05 1/K | 0.00102 ± 4.3e-05 1/K | 0.00103 ± 4.4e-05 1/K | 0.00104 ± 4.4e-05 1/K | 0.00104 ± 4.4e-05 1/K | 0.00105 ± 4.5e-05 1/K | 0.00106 ± 4.5e-05 1/K
30000 kPa | 0.000988 ± 4.2e-05 1/K | 0.000994 ± 4.2e-05 1/K | 0.001 ± 4.2e-05 1/K | 0.00101 ± 4.3e-05 1/K | 0.00101 ± 4.3e-05 1/K | 0.00102 ± 4.3e-05 1/K | 0.00102 ± 4.3e-05 1/K | 0.00103 ± 4.4e-05 1/K
35000 kPa | 0.000969 ± 4.1e-05 1/K | 0.000973 ± 4.1e-05 1/K | 0.000981 ± 4.2e-05 1/K | 0.000988 ± 4.2e-05 1/K | 0.000989 ± 4.2e-05 1/K | 0.000989 ± 4.2e-05 1/K | 0.000993 ± 4.2e-05 1/K | 0.000999 ± 4.2e-05 1/K
40000 kPa | 0.000954 ± 4e-05 1/K | 0.000958 ± 4.1e-05 1/K | 0.000966 ± 4.1e-05 1/K | 0.000968 ± 4.1e-05 1/K | 0.000967 ± 4.1e-05 1/K | 0.000971 ± 4.1e-05 1/K | 0.000972 ± 4.1e-05 1/K | 0.000972 ± 4.1e-05 1/K
45000 kPa | 0.000938 ± 4e-05 1/K | 0.000937 ± 4e-05 1/K | 0.000944 ± 4e-05 1/K | 0.000949 ± 4e-05 1/K | 0.000947 ± 4e-05 1/K | 0.000949 ± 4e-05 1/K | 0.000951 ± 4e-05 1/K | 0.000954 ± 4e-05 1/K
50000 kPa | 0.000921 ± 3.9e-05 1/K | 0.000925 ± 3.9e-05 1/K | 0.000927 ± 3.9e-05 1/K | 0.000929 ± 3.9e-05 1/K | 0.000928 ± 3.9e-05 1/K | 0.000931 ± 4e-05 1/K | 0.00093 ± 3.9e-05 1/K | 0.00093 ± 3.9e-05 1/K
55000 kPa | 0.000895 ± 3.8e-05 1/K | 0.0009 ± 3.8e-05 1/K | 0.000894 ± 3.8e-05 1/K | 0.000898 ± 3.8e-05 1/K | 0.000898 ± 3.8e-05 1/K | 0.000898 ± 3.8e-05 1/K | 0.000899 ± 3.8e-05 1/K | 0.000891 ± 3.8e-05 1/K

CCC(O)CC [3-pentanol]
isobaric coefficient of expansion
Conditions | 278.15 K | 288.15 K | 298.15 K | 308.15 K | 318.15 K | 328.15 K | 338.15 K | 348.15 K
5000 kPa | 0.000898 ± 3.8e-05 1/K | 0.000935 ± 4e-05 1/K | 0.000971 ± 4.1e-05 1/K | 0.00101 ± 4.3e-05 1/K | 0.00106 ± 4.5e-05 1/K | 0.00109 ± 4.6e-05 1/K | 0.00115 ± 4.9e-05 1/K | 0.0012 ± 5.1e-05 1/K
10000 kPa | 0.000875 ± 3.7e-05 1/K | 0.000916 ± 3.9e-05 1/K | 0.000952 ± 4e-05 1/K | 0.00099 ± 4.2e-05 1/K | 0.00103 ± 4.4e-05 1/K | 0.00107 ± 4.5e-05 1/K | 0.00113 ± 4.8e-05 1/K | 0.00117 ± 5e-05 1/K
15000 kPa | 0.000861 ± 3.7e-05 1/K | 0.000898 ± 3.8e-05 1/K | 0.000935 ± 4e-05 1/K | 0.00097 ± 4.1e-05 1/K | 0.00101 ± 4.3e-05 1/K | 0.00104 ± 4.4e-05 1/K | 0.0011 ± 4.7e-05 1/K | 0.00113 ± 4.8e-05 1/K
20000 kPa | 0.00085 ± 3.6e-05 1/K | 0.000882 ± 3.7e-05 1/K | 0.000917 ± 3.9e-05 1/K | 0.000953 ± 4e-05 1/K | 0.000989 ± 4.2e-05 1/K | 0.00103 ± 4.4e-05 1/K | 0.00107 ± 4.6e-05 1/K | 0.00111 ± 4.7e-05 1/K
25000 kPa | 0.000826 ± 3.5e-05 1/K | 0.000868 ± 3.7e-05 1/K | 0.000899 ± 3.8e-05 1/K | 0.000934 ± 4e-05 1/K | 0.00097 ± 4.1e-05 1/K | 0.00101 ± 4.3e-05 1/K | 0.00105 ± 4.4e-05 1/K | 0.00108 ± 4.6e-05 1/K
30000 kPa | 0.000814 ± 3.5e-05 1/K | 0.00085 ± 3.6e-05 1/K | 0.00088 ± 3.7e-05 1/K | 0.000919 ± 3.9e-05 1/K | 0.000952 ± 4e-05 1/K | 0.000983 ± 4.2e-05 1/K | 0.00102 ± 4.3e-05 1/K | 0.00106 ± 4.5e-05 1/K
35000 kPa | 0.000802 ± 3.4e-05 1/K | 0.000837 ± 3.6e-05 1/K | 0.000866 ± 3.7e-05 1/K | 0.000899 ± 3.8e-05 1/K | 0.000932 ± 4e-05 1/K | 0.000965 ± 4.1e-05 1/K | 0.001 ± 4.2e-05 1/K | 0.00103 ± 4.4e-05 1/K
40000 kPa | 0.000799 ± 3.4e-05 1/K | 0.000823 ± 3.5e-05 1/K | 0.000852 ± 3.6e-05 1/K | 0.000888 ± 3.8e-05 1/K | 0.000914 ± 3.9e-05 1/K | 0.000949 ± 4e-05 1/K | 0.000976 ± 4.1e-05 1/K | 0.00101 ± 4.3e-05 1/K
45000 kPa | 0.000766 ± 3.2e-05 1/K | 0.000807 ± 3.4e-05 1/K | 0.000839 ± 3.6e-05 1/K | 0.000869 ± 3.7e-05 1/K | 0.000897 ± 3.8e-05 1/K | 0.00093 ± 3.9e-05 1/K | 0.000953 ± 4e-05 1/K | 0.000986 ± 4.2e-05 1/K
50000 kPa | 0.000769 ± 3.3e-05 1/K | 0.000792 ± 3.4e-05 1/K | 0.000822 ± 3.5e-05 1/K | 0.000852 ± 3.6e-05 1/K | 0.000879 ± 3.7e-05 1/K | 0.000907 ± 3.9e-05 1/K | 0.000931 ± 3.9e-05 1/K | 0.00096 ± 4.1e-05 1/K
55000 kPa | 0.000743 ± 3.2e-05 1/K | 0.000771 ± 3.3e-05 1/K | 0.000806 ± 3.4e-05 1/K | 0.000837 ± 3.6e-05 1/K | 0.000862 ± 3.7e-05 1/K | 0.000887 ± 3.8e-05 1/K | 0.00091 ± 3.9e-05 1/K | 0.000936 ± 4e-05 1/K
